The values below come from ChEMBL document CHEMBL5465560, “Selectivity Literature for EUbOPEN Chemogenomic Library” (2024).

For assay [1], the target named is [Pyruvate dehydrogenase (acetyl-transferring)] kinase isozyme 1, mitochondrial (Homo sapiens, UniProt Q15118). Nature of the assay: Selectivity interaction (Kinase panel (Z-LYTE Assay)) EUB0001632a PDK1. Conditions: at 10 µM.
Assay [2] concerns the target T1, cGMP-dependent protein kinase 1 (Homo sapiens) (UniProt Q13976).
T1 sequence (whole entry): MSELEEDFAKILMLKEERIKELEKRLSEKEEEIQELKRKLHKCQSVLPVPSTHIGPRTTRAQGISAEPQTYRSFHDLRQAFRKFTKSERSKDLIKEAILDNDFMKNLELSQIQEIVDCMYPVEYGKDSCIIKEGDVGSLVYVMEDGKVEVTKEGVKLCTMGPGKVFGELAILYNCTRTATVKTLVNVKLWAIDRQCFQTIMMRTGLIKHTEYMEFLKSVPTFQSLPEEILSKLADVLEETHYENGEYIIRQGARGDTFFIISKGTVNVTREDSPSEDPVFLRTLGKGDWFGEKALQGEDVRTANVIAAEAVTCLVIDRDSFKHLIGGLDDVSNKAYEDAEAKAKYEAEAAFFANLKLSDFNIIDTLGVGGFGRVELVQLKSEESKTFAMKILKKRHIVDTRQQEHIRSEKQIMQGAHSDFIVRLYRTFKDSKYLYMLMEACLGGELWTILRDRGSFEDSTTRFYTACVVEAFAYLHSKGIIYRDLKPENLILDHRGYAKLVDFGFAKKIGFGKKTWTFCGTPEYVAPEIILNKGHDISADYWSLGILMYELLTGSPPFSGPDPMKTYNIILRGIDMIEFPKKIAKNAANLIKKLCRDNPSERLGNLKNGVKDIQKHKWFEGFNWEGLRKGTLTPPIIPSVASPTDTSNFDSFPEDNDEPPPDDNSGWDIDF
Nature of the assay: Selectivity interaction (KinomeScan (DiscoverX)) EUB0000607a PRKG1. The following applies: at 10 µM.

Assay [3] deals with Tyrosine-protein kinase JAK1 (Homo sapiens, UniProt P23458). The experiment in a line: Selectivity interaction (ActivX KiNativ screen (ex vivo kinase selectivity in human PBMCs)) EUB0001619a JAK1. The format is cell-based. Conditions: PBMC, at 1 µM.
Chain of Tyrosine-protein kinase JAK1 (P23458 whole entry): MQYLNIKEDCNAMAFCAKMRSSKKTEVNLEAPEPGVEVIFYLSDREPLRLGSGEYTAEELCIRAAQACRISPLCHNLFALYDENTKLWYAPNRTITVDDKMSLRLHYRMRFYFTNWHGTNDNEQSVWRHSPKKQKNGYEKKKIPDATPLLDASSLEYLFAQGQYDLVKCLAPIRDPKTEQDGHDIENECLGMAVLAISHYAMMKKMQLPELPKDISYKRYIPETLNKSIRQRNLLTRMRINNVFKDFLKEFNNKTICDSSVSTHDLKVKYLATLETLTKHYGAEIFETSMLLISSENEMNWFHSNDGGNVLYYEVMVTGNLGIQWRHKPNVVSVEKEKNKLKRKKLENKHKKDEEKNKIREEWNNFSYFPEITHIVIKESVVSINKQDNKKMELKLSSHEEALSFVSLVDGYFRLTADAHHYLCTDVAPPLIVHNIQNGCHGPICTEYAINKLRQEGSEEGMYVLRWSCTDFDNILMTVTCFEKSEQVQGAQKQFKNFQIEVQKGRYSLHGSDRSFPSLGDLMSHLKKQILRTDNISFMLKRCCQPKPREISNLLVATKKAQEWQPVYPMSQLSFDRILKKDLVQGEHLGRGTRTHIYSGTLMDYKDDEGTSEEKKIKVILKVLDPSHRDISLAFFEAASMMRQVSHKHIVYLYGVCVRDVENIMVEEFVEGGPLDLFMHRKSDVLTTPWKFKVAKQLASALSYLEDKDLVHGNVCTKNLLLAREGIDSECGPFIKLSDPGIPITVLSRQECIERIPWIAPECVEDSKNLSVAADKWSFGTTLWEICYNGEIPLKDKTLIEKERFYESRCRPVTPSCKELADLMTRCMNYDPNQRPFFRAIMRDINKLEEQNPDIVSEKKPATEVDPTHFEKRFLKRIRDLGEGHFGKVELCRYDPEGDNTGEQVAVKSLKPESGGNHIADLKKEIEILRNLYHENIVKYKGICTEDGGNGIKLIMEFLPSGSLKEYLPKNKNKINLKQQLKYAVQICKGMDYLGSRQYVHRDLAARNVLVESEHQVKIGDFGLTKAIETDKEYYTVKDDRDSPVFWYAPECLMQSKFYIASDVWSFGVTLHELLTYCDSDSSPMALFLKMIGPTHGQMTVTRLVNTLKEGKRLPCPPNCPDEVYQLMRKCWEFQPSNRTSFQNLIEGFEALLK
The target of assay [4] is T2, Tyrosine-protein kinase JAK3 (Homo sapiens) (UniProt P52333).
T2 sequence (whole entry): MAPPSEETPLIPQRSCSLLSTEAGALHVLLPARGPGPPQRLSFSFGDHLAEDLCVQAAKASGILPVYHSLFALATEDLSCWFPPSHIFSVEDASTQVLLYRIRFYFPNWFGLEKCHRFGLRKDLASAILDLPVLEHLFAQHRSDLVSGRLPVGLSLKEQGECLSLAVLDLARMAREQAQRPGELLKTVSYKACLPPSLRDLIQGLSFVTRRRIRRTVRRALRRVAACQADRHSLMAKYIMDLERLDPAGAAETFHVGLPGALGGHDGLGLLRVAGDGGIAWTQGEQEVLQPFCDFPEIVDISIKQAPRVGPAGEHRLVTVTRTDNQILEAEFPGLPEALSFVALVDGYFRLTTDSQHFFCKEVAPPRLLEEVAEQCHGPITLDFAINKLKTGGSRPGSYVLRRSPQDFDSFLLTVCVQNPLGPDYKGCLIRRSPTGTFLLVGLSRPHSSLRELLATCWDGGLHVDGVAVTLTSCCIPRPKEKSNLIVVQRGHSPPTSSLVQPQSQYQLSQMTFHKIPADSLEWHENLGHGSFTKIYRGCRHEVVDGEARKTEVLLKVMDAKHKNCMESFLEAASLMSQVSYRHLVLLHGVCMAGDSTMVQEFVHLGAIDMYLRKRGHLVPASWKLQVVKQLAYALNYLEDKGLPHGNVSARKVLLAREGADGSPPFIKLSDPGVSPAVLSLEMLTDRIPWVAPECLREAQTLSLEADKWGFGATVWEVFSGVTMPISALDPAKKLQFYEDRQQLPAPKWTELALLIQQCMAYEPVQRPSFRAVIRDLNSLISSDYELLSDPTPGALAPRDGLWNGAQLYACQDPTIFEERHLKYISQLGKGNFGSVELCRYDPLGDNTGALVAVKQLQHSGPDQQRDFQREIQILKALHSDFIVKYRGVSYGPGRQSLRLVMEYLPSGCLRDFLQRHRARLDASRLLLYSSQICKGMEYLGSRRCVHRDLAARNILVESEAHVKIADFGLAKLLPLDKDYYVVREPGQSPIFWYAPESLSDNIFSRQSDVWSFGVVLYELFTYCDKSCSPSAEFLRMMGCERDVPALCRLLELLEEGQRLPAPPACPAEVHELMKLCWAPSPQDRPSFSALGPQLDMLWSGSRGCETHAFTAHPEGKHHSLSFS
The experiment in a line: Selectivity interaction (ActivX KiNativ screen (ex vivo kinase selectivity in human PBMCs)) EUB0001619a JAK3. The format is cell-based. The following applies: PBMC, at 1 µM.

For assay [5], the target named is Tyrosine-protein kinase Lck (Homo sapiens, UniProt P06239). Nature of the assay: Selectivity interaction (KinomeScan (DiscoverX)) EUB0001619a LCK. Conditions: at 1 µM.
Chain of Tyrosine-protein kinase Lck (P06239 2-509 limits assumed): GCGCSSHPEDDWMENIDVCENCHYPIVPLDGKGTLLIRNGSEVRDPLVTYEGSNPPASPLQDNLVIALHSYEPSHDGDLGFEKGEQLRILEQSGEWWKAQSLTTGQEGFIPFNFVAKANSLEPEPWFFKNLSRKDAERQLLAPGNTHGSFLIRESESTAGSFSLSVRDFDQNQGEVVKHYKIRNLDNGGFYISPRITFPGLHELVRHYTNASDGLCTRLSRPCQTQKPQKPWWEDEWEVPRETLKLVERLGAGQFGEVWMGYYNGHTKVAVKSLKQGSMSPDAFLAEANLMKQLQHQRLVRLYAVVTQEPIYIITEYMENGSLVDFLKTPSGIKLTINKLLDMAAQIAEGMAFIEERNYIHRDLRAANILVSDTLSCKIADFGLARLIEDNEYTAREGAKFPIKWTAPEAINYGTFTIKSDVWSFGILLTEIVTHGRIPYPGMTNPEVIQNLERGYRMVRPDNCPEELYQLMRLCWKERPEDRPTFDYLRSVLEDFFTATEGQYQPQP
The target in assay [6] is T3, Mitogen-activated protein kinase kinase kinase 2 (Homo sapiens) (UniProt Q9Y2U5).
T3 sequence (whole entry): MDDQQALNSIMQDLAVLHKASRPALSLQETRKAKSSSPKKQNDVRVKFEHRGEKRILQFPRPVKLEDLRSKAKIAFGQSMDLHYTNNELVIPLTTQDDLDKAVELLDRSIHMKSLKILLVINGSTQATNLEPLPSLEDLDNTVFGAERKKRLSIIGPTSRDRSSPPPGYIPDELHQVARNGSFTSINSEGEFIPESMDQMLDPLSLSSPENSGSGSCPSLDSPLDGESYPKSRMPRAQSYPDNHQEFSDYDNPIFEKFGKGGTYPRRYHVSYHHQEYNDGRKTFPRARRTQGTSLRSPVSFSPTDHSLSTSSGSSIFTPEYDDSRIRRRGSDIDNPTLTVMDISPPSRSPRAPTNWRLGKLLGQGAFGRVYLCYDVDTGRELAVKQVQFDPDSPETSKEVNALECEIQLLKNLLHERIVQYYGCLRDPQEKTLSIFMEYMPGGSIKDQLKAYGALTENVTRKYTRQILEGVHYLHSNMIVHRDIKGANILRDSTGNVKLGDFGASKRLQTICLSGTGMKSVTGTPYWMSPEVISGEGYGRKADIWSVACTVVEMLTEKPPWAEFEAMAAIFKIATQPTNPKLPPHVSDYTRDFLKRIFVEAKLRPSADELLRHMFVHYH
The experiment in a line: Selectivity interaction (ActivX KiNativ screen (kinase selectivity in THP-1 cell lysates)) EUB0000639a MAP3K2. The format is subcellular. Conditions: lysate, at 5 µM.

Assay [7] concerns the target Cyclin-dependent kinase 2 (Homo sapiens, UniProt P24941). Nature of the assay: Selectivity interaction (ActivX KiNativ screen (kinase selectivity in THP-1 cell lysates)) EUB0000639a CDK2. The format is subcellular. Conditions: lysate, at 1 µM.
Assay [8] deals with cAMP-dependent protein kinase catalytic subunit beta (Homo sapiens) (UniProt P22694). The following applies: at 10 µM.

The structures appear in SMILES notation.

`Cn1cc(-n2cnc3c(NCc4nc5cc(Cl)c(Cl)cc5[nH]4)nc(N4CCOCC4)nc32)cn1` yielded a % of control in assay [1] of 9.23%.

`CNC(=O)Nc1ccc(-c2nc(N3CC4CCC(C3)O4)c3cnn(C4CCC5(CC4)OCCO5)c3n2)cc1`: the % of control in assay [2] turned out to be 100%.

`N#Cc1cccc(-c2c[nH]c3ncnc(N4CCOCC4)c23)c1`: the % of inhibition in assay [3] is -1%; in assay [4] it was 7%. Moreover, the % of control in assay [5] turned out to be 95%.

Consider `CC[C@@H]1[C@H](F)C(=O)N[C@@H]1COc1nccc2cc(C(N)=O)c(OC)cc12` [ZIMLOVISERTIB], for which the figures for the % of inhibition in assay [6] and in assay [7] were 12.6% and -10.5%, respectively.

Molecule `CCN(CC)CCCCNc1ncc2cc(-c3cc(OC)cc(OC)c3)c(NC(=O)NC(C)(C)C)nc2n1` gave a % of control in assay [8] of 100%.
